# Molecular target: Gamma-secretase
# Experiment: Inhibition of amyloid-beta production in Chinese hamster ovary (CHO) cells expressing human amyloid precursor protein (APP)
# Type: functional, cell-based
row,Structure (SMILES),IC50 [µM]
1,COC(=O)[C@@H](NC(=O)[C@H](CC(C)C)NC(=O)N(Cc1ccccc1)C[C@@H](O)[C@H](Cc1ccccc1)NC(=O)[C@H](C)NC(=O)OC(C)(C)C)C(C)C,0.15
2,COC(=O)[C@H](Cc1ccccc1)NC(=O)[C@H](CC(C)C)NC(=O)N(C[C@@H](O)[C@H](Cc1ccccc1)NC(=O)OC(C)(C)C)C(C)C,22
3,COC(=O)[C@@H](NC(=O)[C@@H](NC(=O)[C@H](CC(C)C)NC(=O)N(Cc1ccccc1)C[C@@H](O)[C@H](Cc1ccccc1)NC(=O)OC(C)(C)C)C(C)C)C(C)C,0.53
4,COC(=O)[C@H](CC(C)C)NC(=O)[C@@H](NC(=O)[C@H](CC(C)C)NC(=O)N(Cc1ccccc1)C[C@@H](O)[C@H](Cc1ccccc1)NC(=O)OC(C)(C)C)C(C)C,0.54
5,COC(=O)[C@H](Cc1ccccc1)NC(=O)[C@H](CC(C)C)NC(=O)N(Cc1ccccc1)C[C@@H](O)[C@H](Cc1ccccc1)NC(=O)OC(C)(C)C (stereo in doubt; 9),0.4
6,COC(=O)[C@H](Cc1ccccc1)NC(=O)[C@H](CC(C)C)NC(=O)N(CC(C)C)C[C@@H](O)[C@H](Cc1ccccc1)NC(=O)OC(C)(C)C,0.4
7,COC(=O)[C@H](C)NC(=O)[C@H](CC(C)C)NC(=O)N(Cc1ccccc1)C[C@@H](O)[C@H](Cc1ccccc1)NC(=O)OC(C)(C)C,20
8,COC(=O)[C@H](Cc1ccccc1)NC(=O)[C@@H](NC(=O)N(Cc1ccccc1)C[C@@H](O)[C@H](Cc1ccccc1)NC(=O)OC(C)(C)C)C(C)C,0.4
9,COC(=O)[C@H](Cc1ccccc1)NC(=O)[C@H](CC(C)C)NC(=O)N(C)C[C@@H](O)[C@H](Cc1ccccc1)NC(=O)OC(C)(C)C,3.1
10,COC(=O)[C@H](Cc1ccccc1)NC(=O)[C@H](CC(C)C)NC(=O)N(Cc1ccccc1)C[C@@H](O)[C@H](Cc1ccccc1)NC(=O)OC(C)(C)C (stereo in doubt; 12),0.39
11,COC(=O)[C@@H](NC(=O)[C@H](CC(C)C)NC(=O)N(Cc1ccccc1)C[C@@H](O)[C@H](Cc1ccccc1)NC(=O)OC(C)(C)C)C(C)C,0.22
12,COC(=O)[C@H](CC(C)C)NC(=O)[C@H](CC(C)C)NC(=O)N(Cc1ccccc1)C[C@@H](O)[C@H](Cc1ccccc1)NC(=O)OC(C)(C)C,0.65
13,COC(=O)[C@H](Cc1ccccc1)NC(=O)[C@@H](NC(=O)[C@H](CC(C)C)NC(=O)N(Cc1ccccc1)C[C@@H](O)[C@H](Cc1ccccc1)NC(=O)OC(C)(C)C)C(C)C,0.25
14,COC(=O)[C@H](Cc1ccccc1)NC(=O)[C@H](C)NC(=O)N(Cc1ccccc1)C[C@@H](O)[C@H](Cc1ccccc1)NC(=O)OC(C)(C)C,0.14
15,COC(=O)[C@@H](NC(=O)[C@H](CC(C)C)NC(=O)N(Cc1ccccc1)C[C@@H](O)[C@H](Cc1ccccc1)NC(=O)[C@@H](NC(=O)OC(C)(C)C)C(C)C)C(C)C,0.07
16,COC(=O)[C@H](CC(C)C)NC(=O)N(Cc1ccccc1)C[C@@H](O)[C@H](Cc1ccccc1)NC(=O)OC(C)(C)C,8
17,COC(=O)[C@H](Cc1ccccc1)NC(=O)[C@H](Cc1ccccc1)NC(=O)N(Cc1ccccc1)C[C@@H](O)[C@H](Cc1ccccc1)NC(=O)OC(C)(C)C,18
18,COC(=O)[C@@H](NC(=O)[C@H](CC(C)C)NC(=O)N(Cc1ccccc1)C[C@@H](O)[C@H](Cc1ccccc1)NC(=O)[C@H](Cc1ccccc1)NC(=O)OC(C)(C)C)C(C)C,0.5
19,COC(=O)[C@@H](NC(=O)[C@H](CC(C)C)NC(=O)N(Cc1ccccc1)C[C@@H](O)[C@H](Cc1ccccc1)NC(=O)[C@H](CC(C)C)NC(=O)OC(C)(C)C)C(C)C,0.23
20,CC[C@H](C)[C@H](NC(=O)[C@@H](NC(=O)[C@H](CC(C)C)NC(=O)N(Cc1ccccc1)C[C@@H](O)[C@H](Cc1ccccc1)NC(=O)OC(C)(C)C)C(C)C)C(=O)OC,0.27
21,COC(=O)[C@H](C)NC(=O)[C@@H](NC(=O)[C@H](CC(C)C)NC(=O)N(Cc1ccccc1)C[C@@H](O)[C@H](Cc1ccccc1)NC(=O)OC(C)(C)C)C(C)C,0.67
22,COC(=O)[C@H](Cc1ccccc1)NC(=O)[C@H](CC(C)C)NC(=O)N(Cc1ccccc1)C[C@@H](O)[C@H](Cc1ccccc1)NC(=O)OC(C)(C)C (stereo in doubt; 2),0.39

# From ChEMBL document CHEMBL1137957, “Probing pockets S2-S4' of the gamma-secretase active site with (hydroxyethyl)urea peptidomimetics” (Bioorg Med Chem Lett, 2004)
